Source: ChEMBL document CHEMBL5385861, “Development of novel hydrazidoarylaminopyrimidine-based BTK/FLT3 dual inhibitors with potent in vivo anti-hematological malignancies effects” (Eur J Med Chem, 2023)
Activity calls are given as the source filed them. No cut-off for these calls is given here.

Key:
[1] = system: K562; test: Potency index, ratio of sorafenib IC50 to test compound IC50 for antiproliferative activity against human K562 cells; type: functional
[2] = Acute toxicity in ip dosed ICR mouse assessed as change in routine blood analysis at 200 mg/kg, ip measured for 2 weeks; type: organism-based; details: in vivo, 336 h
[3] = target: Macrophage colony-stimulating factor 1 receptor (Homo sapiens) (UniProt P07333); test: Inhibition of Fms (unknown origin) at 0.2 uM incubated for 40 mins by radiometric kinase assay relative to control
Chain of Macrophage colony-stimulating factor 1 receptor (Homo sapiens) (P07333 whole entry): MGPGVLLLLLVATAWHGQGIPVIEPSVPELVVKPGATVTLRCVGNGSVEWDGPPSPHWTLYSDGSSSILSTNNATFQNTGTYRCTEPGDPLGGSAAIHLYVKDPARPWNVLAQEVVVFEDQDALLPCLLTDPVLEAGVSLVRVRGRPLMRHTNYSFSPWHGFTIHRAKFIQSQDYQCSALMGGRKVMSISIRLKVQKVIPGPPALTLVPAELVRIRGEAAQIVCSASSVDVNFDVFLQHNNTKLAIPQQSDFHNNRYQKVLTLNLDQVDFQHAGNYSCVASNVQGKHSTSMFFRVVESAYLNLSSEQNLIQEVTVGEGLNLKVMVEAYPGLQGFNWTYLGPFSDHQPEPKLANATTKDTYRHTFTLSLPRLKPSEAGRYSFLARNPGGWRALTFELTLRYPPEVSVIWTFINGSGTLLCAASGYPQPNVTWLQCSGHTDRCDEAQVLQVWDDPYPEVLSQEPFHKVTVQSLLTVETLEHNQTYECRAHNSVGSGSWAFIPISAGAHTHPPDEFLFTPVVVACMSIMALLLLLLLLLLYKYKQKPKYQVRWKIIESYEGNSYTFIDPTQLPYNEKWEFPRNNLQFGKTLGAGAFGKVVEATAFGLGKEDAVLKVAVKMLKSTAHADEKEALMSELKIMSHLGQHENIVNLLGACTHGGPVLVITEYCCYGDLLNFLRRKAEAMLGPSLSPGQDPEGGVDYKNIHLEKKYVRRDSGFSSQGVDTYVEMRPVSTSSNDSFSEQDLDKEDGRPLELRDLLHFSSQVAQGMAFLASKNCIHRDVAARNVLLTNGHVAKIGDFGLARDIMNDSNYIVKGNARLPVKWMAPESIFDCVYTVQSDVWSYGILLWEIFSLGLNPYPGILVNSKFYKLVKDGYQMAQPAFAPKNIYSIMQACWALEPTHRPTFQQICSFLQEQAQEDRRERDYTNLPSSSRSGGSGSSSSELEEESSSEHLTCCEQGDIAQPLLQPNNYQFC

[4] = target: CDK6/cyclin D3 (Homo sapiens) (UniProt P30281+Q00534); test: Inhibition of CDK6/cyclinD3 (unknown origin) at 0.2 uM incubated for 40 mins by radiometric kinase assay relative to control; type: protein-complex assay
[5] = target: Mast/stem cell growth factor receptor Kit (Homo sapiens) (UniProt P10721); test: Inhibition of cKit (unknown origin) at 0.2 uM incubated for 40 mins by radiometric kinase assay relative to control
Chain of Mast/stem cell growth factor receptor Kit (Homo sapiens) (P10721 whole entry): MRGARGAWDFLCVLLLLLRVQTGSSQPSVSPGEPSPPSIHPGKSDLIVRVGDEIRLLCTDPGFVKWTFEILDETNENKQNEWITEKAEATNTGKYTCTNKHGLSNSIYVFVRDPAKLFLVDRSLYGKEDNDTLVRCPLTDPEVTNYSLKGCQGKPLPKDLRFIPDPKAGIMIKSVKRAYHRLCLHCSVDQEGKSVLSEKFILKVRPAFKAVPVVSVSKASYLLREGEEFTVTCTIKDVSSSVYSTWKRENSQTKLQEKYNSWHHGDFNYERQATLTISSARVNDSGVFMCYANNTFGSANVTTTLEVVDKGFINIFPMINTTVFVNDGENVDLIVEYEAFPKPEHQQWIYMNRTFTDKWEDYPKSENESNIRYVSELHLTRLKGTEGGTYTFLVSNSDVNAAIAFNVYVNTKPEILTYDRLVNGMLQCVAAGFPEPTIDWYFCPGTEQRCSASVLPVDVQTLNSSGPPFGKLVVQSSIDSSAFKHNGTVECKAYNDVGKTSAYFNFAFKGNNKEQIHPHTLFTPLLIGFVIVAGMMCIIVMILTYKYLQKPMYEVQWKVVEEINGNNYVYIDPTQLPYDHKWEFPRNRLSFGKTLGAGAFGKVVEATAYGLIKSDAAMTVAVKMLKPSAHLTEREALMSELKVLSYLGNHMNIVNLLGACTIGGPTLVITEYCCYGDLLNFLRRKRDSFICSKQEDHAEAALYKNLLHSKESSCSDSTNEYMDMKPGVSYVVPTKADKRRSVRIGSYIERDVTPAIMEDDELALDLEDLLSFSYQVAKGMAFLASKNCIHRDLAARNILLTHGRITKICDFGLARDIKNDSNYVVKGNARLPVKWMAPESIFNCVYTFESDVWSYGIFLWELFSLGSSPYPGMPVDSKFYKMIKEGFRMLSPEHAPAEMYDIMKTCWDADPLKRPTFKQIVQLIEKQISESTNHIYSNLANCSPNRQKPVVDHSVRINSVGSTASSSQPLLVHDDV

[6] = target: Tyrosine-protein kinase HCK (Homo sapiens) (UniProt P08631); test: Inhibition of HCK (unknown origin) at 0.2 uM incubated for 40 mins by radiometric kinase assay relative to control
[7] = system: JeKo-1; test: Induction of apoptosis in human JeKo-1 cells assessed as late apoptotic cells at 150 nM incubated for 72 hrs by Annexin VFITC/PI staining based flow cytometry analysis (reference value: 1.42%); type: functional
[8] = system: JeKo-1; test: Antitumor activity against human JeKo-1 cells xenografted NOD/SCID mouse assessed as tumor growth inhibition at 25 mg/kg, ip measured for 16 days; type: functional; details: JeKo-1, 384 h, time 16 day, read-out: TGI
[9] = target: MAP kinase-activated protein kinase 2 (Homo sapiens) (UniProt P49137); test: Inhibition of MAPKAP-K2 (unknown origin) at 0.2 uM incubated for 40 mins by radiometric kinase assay relative to control
Chain of MAP kinase-activated protein kinase 2 (Homo sapiens) (P49137 whole entry, looked up): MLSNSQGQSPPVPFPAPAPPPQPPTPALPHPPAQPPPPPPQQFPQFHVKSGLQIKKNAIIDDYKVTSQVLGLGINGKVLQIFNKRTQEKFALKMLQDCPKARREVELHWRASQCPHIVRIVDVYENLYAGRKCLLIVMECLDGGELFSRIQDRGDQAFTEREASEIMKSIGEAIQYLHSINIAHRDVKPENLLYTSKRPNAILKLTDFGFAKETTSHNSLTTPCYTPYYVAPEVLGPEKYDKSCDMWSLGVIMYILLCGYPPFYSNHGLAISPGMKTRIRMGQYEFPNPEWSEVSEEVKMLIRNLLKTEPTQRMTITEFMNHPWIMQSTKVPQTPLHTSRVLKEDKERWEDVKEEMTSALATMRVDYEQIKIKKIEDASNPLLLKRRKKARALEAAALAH

[10] = system: Receptor-type tyrosine-protein kinase FLT3 (Homo sapiens), P36888 [D835Y]; test: Inhibition of FLT3 D835Y mutant (unknown origin) at 0.2 uM incubated for 40 mins by radiometric kinase assay relative to control
[11] = target: Death-associated protein kinase 3 (Homo sapiens) (UniProt O43293); test: Inhibition of ZIPK (unknown origin) at 0.2 uM incubated for 40 mins by radiometric kinase assay relative to control
[12] = target: Serine/threonine-protein kinase PLK2 (Homo sapiens) (UniProt Q9NYY3); test: Inhibition of SNK (unknown origin) at 0.2 uM incubated for 40 mins by radiometric kinase assay relative to control
Chain of Serine/threonine-protein kinase PLK2 (Homo sapiens) (Q9NYY3 whole entry, looked up): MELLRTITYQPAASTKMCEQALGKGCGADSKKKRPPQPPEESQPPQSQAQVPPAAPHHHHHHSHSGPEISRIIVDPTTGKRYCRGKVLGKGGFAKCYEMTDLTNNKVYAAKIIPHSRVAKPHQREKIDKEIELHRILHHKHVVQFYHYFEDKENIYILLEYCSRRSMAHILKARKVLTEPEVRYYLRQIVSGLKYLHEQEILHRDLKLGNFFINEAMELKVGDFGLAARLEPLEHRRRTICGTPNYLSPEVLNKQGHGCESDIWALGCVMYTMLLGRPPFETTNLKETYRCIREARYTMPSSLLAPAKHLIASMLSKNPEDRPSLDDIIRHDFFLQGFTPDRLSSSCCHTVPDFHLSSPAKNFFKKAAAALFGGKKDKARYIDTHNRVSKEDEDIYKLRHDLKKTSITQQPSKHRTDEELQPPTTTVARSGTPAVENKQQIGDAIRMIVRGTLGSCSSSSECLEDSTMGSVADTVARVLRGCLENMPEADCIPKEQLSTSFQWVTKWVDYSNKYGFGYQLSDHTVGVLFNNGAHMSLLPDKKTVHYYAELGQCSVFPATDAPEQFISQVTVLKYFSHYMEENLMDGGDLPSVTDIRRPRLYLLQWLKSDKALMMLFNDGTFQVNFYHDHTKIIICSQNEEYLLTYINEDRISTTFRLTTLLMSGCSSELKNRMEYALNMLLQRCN

[13] = Acute toxicity in ICR mouse assessed as animal survival at 468.8 mg/kg, ip measured for 2 weeks; type: organism-based; details: in vivo
[14] = system: K562; test: cells; details: Homo sapiens, K562, 72 h
Description: Antiproliferative activity against human K562 cells assessed as inhibition of cell growth incubated for 72 hrs by CCK8 assay

[15] = system: PBMC; test: Cytotoxicity against human PBMC cells assessed as reduction in cell viability; type: toxicity, cell-based
[16] = system: JeKo-1; test: Induction of apoptosis in human JeKo-1 cells assessed as downregulation of Bcl-2 protein expression at 30 to 750 nM incubated for 72 hrs by Western blot analysis; type: functional, cell-based; details: dose 30-750 nM
[17] = system: JeKo-1; test: cells; details: Homo sapiens, JeKo-1, 72 h
Description: Antiproliferative activity against human JeKo-1 cells assessed as inhibition of cell growth incubated for 72 hrs by CCK8 assay

[18] = system: JeKo-1; test: Antitumor activity against human JeKo-1 cells xenografted NOD/SCID mouse assessed as tumor growth inhibition at 50 mg/kg, ip measured for 16 days; type: functional; details: JeKo-1, 384 h, time 16 day, read-out: TGI
[19] = system: MV4-11; test: Antitumor activity against human MV4-11 cells xenografted in NOD/SCID mouse assessed as tumor growth inhibition at 20 mg/kg ip administered once daily for 21 days; type: functional; details: MV4-11, 504 h, time 21 day, read-out: TGI
[20] = system: JeKo-1; test: Potency index, ratio of sorafenib IC50 to test compound IC50 for antiproliferative activity against human JeKo-1 cells; type: functional
[21] = target: Mitogen-activated protein kinase 9 (Homo sapiens) (UniProt P45984); test: Inhibition of JNK2alpha2 (unknown origin) at 0.2 uM incubated for 40 mins by radiometric kinase assay relative to control
[22] = target: Dual specificity mitogen-activated protein kinase kinase 1 (Homo sapiens) (UniProt Q02750); test: Inhibition of MEK1 (unknown origin) at 0.2 uM incubated for 40 mins by radiometric kinase assay relative to control
[23] = system: MV4-11; test: Potency index, ratio of spebrutinib IC50 to test compound IC50 for antiproliferative activity against human MV4-11 cells; type: functional
[24] = in vitro; details: human, Caco-2
Description: Apparent permeability across apical to basolateral side in human Caco-2 cells incubated for 120 mins by LC-MS/MS analysis

[25] = Acute toxicity in ip dosed ICR mouse assessed as effect on RBC level at 200 mg/kg, ip measured for 2 weeks; type: organism-based, Erythrocyte; details: in vivo, 336 h
[26] = target: Dual specificity mitogen-activated protein kinase kinase 6 (Homo sapiens) (UniProt P52564); test: Inhibition of MKK6 (unknown origin) at 0.2 uM incubated for 40 mins by radiometric kinase assay relative to control
[27] = target: Epidermal growth factor receptor (Homo sapiens) (UniProt P00533); test: Inhibition of EGFR (unknown origin) at 0.2 uM incubated for 40 mins by radiometric kinase assay relative to control
Chain of Epidermal growth factor receptor (Homo sapiens) (P00533 whole entry): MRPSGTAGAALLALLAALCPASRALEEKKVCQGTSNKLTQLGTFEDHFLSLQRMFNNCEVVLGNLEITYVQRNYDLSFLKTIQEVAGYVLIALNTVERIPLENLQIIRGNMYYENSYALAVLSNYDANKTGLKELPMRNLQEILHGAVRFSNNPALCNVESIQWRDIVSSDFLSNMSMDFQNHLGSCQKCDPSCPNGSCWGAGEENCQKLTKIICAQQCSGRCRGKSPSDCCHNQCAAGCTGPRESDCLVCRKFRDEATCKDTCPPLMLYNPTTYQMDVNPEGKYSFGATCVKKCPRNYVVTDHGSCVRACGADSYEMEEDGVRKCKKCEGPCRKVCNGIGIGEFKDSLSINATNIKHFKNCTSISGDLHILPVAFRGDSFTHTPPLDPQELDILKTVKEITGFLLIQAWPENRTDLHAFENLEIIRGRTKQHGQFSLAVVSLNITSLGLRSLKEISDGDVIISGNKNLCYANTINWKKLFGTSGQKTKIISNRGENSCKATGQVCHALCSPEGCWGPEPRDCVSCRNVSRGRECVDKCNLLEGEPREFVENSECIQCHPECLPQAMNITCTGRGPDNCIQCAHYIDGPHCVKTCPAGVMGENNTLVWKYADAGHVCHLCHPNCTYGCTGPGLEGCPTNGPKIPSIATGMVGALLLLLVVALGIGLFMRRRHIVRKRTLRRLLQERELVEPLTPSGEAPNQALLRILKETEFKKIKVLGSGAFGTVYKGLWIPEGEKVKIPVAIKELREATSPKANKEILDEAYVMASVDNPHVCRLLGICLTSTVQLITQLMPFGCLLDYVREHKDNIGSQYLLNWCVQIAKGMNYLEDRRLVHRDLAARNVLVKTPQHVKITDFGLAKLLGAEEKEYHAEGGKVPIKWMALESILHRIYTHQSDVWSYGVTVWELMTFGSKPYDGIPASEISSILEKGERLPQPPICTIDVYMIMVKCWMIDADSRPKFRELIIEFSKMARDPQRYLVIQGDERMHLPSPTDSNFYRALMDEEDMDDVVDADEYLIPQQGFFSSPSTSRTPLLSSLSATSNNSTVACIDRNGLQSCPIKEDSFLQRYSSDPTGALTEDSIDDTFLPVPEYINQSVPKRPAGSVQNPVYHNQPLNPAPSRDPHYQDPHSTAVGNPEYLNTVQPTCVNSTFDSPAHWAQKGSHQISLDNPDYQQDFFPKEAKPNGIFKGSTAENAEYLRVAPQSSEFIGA

[28] = Metabolic stability in human liver microsome assessed as intrinsic clearance preincubated with compound for 5 mins followed by NADPH addition and measured upto 60 mins by LC-MS/MS analysis; type: ADME; details: liver microsomes, time < 65 min, read-out: CLH
[29] = system: P-glycoprotein; test: in vitro; details: human, Caco-2
Description: Efflux ratio of apparent permeability across basolateral to apical side over apical to basolateral side in human Caco-2 cells incubated for 120 mins in presence of P-glycoprotein by LC-MS/MS analysis

[30] = Acute toxicity in ip dosed ICR mouse assessed as lethal dose measured for 2 weeks; type: organism-based; details: in vivo
[31] = target: Receptor-type tyrosine-protein kinase FLT3 (Homo sapiens) (UniProt P36888); test: Inhibition of FLT3 phosphorylation in human JeKo-1 cells incubated for 72 hrs by Western blot analysis; type: cell-based; details: dose 30-750 nM
[32] = target: Serine-protein kinase ATM (Homo sapiens) (UniProt Q13315); test: Inhibition of ATM (unknown origin) at 0.2 uM incubated for 40 mins by radiometric kinase assay relative to control
[33] = target: Serine/threonine-protein kinase PLK1 (Homo sapiens) (UniProt P53350); test: Inhibition of PLK1 (unknown origin) at 0.2 uM incubated for 40 mins by radiometric kinase assay relative to control
[34] = target: Tyrosine-protein kinase ITK/TSK (Homo sapiens) (UniProt Q08881); test: Inhibition of ITK (unknown origin) at 0.2 uM incubated for 40 mins by radiometric kinase assay relative to control
Chain of Tyrosine-protein kinase ITK/TSK (Homo sapiens) (Q08881 whole entry): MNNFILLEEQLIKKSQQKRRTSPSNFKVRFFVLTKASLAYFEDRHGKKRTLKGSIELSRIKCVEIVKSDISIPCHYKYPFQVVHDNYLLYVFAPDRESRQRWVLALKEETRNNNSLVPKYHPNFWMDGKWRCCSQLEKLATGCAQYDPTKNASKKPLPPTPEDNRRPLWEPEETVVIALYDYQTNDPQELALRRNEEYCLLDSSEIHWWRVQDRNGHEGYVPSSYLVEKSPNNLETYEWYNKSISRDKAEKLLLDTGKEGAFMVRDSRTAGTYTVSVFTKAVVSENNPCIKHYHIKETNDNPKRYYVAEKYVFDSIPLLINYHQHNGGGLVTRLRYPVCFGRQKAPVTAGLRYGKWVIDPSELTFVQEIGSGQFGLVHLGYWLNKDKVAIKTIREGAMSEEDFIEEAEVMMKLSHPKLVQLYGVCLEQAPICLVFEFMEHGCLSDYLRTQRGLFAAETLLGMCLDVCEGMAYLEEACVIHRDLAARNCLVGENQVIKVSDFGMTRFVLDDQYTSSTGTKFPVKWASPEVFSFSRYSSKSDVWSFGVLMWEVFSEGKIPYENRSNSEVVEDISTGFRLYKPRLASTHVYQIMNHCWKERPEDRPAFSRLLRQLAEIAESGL

[35] = Toxicity in NOD/SCID mouse xenografted with human MV4-11 cells assessed as effect on body weight loss at 10 to 20 mg/kg, ip administered once daily for 21 days; type: organism-based; details: in vivo, 504 h, dose 10-20 mg/kg, time 21 day
[36] = system: MV4-11; test: Antitumor activity against human MV4-11 cells xenografted NOD/SCID mouse assessed as reduction in tumor weight at 20 mg/kg, ip administered once daily for 21 days; type: functional; details: time 21 day
[37] = system: JeKo-1; test: Antitumor activity against human JeKo-1 cells xenografted NOD/SCID mouse assessed as reduction in tumor weight at 25 mg/kg, ip measured for 16 days; type: functional; details: time 16 day

SMILES: CN1CCN(c2ccc(Nc3ncc(F)c(Nc4ccccc4C(=O)NN)n3)cc2)CC1
- Ratio IC50 [1]: 1.3
- Activity [2]: Non-Toxic
- inhibition [3]: 67%
- inhibition [4]: 23%
- inhibition [5]: 10%
- inhibition [6]: 27%
- Activity [7]: 1.65%
- inhibition in vivo at 25 mg/kg [8]: 67%
- inhibition [9]: 6%
- inhibition [10]: 101%
- inhibition [11]: 26%
- inhibition [12]: 43%
- survival at 336 h [13]: 10%
- IC50 [14]: 0.93 µM
- Activity [15]: Non-Toxic
- Activity [16]: Active
- IC50 [17]: 0.017 µM
- inhibition in vivo at 50 mg/kg [18]: 79.8%
- inhibition in vivo at 20 mg/kg [19]: 100%
- Ratio IC50 [20]: 1.3
- inhibition [21]: 11%
- inhibition [22]: -3%
- Ratio IC50 [23]: 8
- Papp A→B at 2 h [24]: 5.11 ×10⁻⁶ cm/s
- Activity [25]: Toxic
- inhibition [26]: 10%
- inhibition [27]: 8%
- CLint scaled [28]: 30.1 mL/min/kg
- efflux ratio at 2 h [29]: 2.64
- LD50 at 336 h [30]: 343 mg/kg
- inhibition [31]: Dose-Dependent Effect
- inhibition [32]: -6%
- inhibition [33]: 7%
- inhibition [34]: 65%
- Activity [35]: Non-Toxic
- Activity [36]: 0.08 g
- Activity [37]: 0.31 g
